Measurements from PMC7894522, “Structure Based Design of Bicyclic Peptide Inhibitors of RbAp48” (Angewandte Chemie (International Ed. in English), 2020).
Like-named read-outs stand apart in the source and are kept apart here. Starred links: 1 amine or outer side, 2 acyl side, 3 side chain; linkers in the order of their positions; H or OH if unused. Positions of bridges follow the written chain, without caps; N, C: chain ends. Residues, ends and D or L forms follow the SMILES beside them. TBMB = c1c(C[*:1])cc(C[*:3])cc1C[*:2]; mXylylene = c1cc(C[*:1])cc(C[*:2])c1; X2 = c1ccc2c(C[*:2])ccc(C[*:1])c2c1; pXylylene = c1cc(C[*:2])ccc1C[*:1]; X4 = N#Cc1cc(C[*:1])cc(C[*:2])c1; X3 = COc1cc(C[*:1])cc(C[*:2])c1

Molecular target: RbAp48 (Homo sapiens, UniProt Q09028)
Assay: Competitive fluorescence polarization (FP) assay using complex of peptide 1 and RbAp48
Format: binding
Set-up: Full length RbAp48 was cloned; His tag followed by 3C cleavage site (N, cleaved yes); made in house; host or cells: Sf9 insect cells
Conditions: for IC50: competitive FP, RbAp48 15 nM, read-out: IC50
Method: The binding affinity of our library of synthetic cyclic peptides was evaluated by a competitive fluorescence polarization (FP) assay using a complex formed by peptide 1 and RbAp48. To reduce the length of the peptide it was truncated to the amino acids which seemed most critical according to the crystal structure (residues 676–689, pdb:4pbz). […] We chose to use a cyclization approach to regain affinity, that is, not to induce more interactions but through minimizing the entropic penalty upon binding by reducing the flexibility of the peptide. To this end two amino acids were chosen which are facing one another in the structure (see Figure 1 B/D/E). Two peptides were designed where glutamic acid was used in position 676 (4) or position 680 (5) and lysine in position 688 for both peptides (see Table 1). The macrocycles were formed by connecting the side chains via an amide bond (see Figure 1 D/E). Peptide synthesis was performed on Rink‐amide resin using the Fmoc‐strategy incorporating Fmoc‐L‐Glu(All)‐OH and Fmoc‐L‐Lys(Alloc)‐OH at the sites for cyclization. After completion of the linear synthesis the allyl protecting groups were removed using Pd^0 catalysis and the amide link was formed by using PyBOP. […] Therefore, a range of peptides was synthesized which were cyclized using the same amino acid positions but via a cysteine alkylation strategy (see Figure 1 D/E and Table 1). In this method the residues used for cyclization are replaced with cysteine and benzylic dibromides act as crosslinkers on the unprotected peptides. ^[11] Previous research has shown that such linkers can effectively stabilize cyclic peptides and yield high affinity ligands for protein–protein interaction inhibition. ^[12] Such a linker introduces a xylene group in close vicinity of the hydrophobic patch potentially reconstituting the lost key hydrophobic interactions. To explore a variety of macrocycle conformations we used either ortho‐, meta‐ or para‐substituted dibromides to exchange the linker in both 4 and 5 (see Figure 1 D/E and Table 1). ^[13]
Protein expression and purification
RbAp48 was expressed and purified by the Dortmund Protein Facility. Full length RbAp48 was cloned into a pOPIN vector ligating it to an N-terminal His tag followed by a 3C cleavage site. The protein was expressed from Sf9 cells for 48 h. Cells were harvested and lysed and the protein was purified by loading onto a HisTrap FF crude 5 ml column followed by on-column cleavage using Precission protease. The cleaved protein was then further purified using a HiLoad 26/60 Superdex 200 column.
Fluorescence polarization assay
Fluorescence polarization assays were performed in 384 wells plates in 80 µl volumes. The assay buffer contains 20 mM Tris-HCl, 150 mM NaCl, 0.01% Tween-20 at pH 7.5. The concentration of the fluorescently labelled peptides was 1 nM plates were incubated at room temperature for 30 min before they were read on a Tecan Spark plate reader (λex = 485 nm, λem = 535 nm).
For competitive assays the same conditions were used with a tracer concentration of 1 nM was used and a protein concentration of 15 nM .

[1] = Table 1, tracer peptide 1 1 nM, 20 mM Tris-HCl, 150 mM NaCl, 0.01% Tween-20, pH 7.5, 30 min room temperature, lower limit set by 15 nM protein
[2] = Supplemental Table 2, tracer 1 nM, pH 7.5, 30 min room temperature

Chain of RbAp48 (Q09028 whole entry): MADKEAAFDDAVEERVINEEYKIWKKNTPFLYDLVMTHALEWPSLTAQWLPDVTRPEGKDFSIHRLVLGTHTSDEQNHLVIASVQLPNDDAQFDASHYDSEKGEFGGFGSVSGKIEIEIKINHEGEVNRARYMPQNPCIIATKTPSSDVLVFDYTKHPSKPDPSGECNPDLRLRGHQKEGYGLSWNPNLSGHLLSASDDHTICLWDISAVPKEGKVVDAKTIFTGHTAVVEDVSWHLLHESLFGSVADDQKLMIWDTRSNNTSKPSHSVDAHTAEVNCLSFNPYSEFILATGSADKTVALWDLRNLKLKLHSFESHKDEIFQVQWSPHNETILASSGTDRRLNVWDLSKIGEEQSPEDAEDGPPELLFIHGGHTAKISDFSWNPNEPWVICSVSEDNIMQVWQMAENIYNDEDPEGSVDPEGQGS

| SMILES | IC50 [1] | IC50 [2] | FP activity in words (competitive FP assay) |
| --- | --- | --- | --- |
| CC(=O)N[C@H]1CSCc2cc3cc(c2)CSC[C@@H](C(=O)N[C@@H](C)C(N)=O)NC(=O)[C@@H]2CCCN2C(=O)[C@H](CCCCN)NC(=O)[C@H](Cc2ccc(O)cc2)NC(=O)[C@@H]2CCCN2C(=O)[C@H](C)NC(=O)[C@H](CCCNC(=N)N)NC(=O)[C@H](C)NC(=O)[C@H](CSC3)NC(=O)[C@H](CCCNC(=N)N)NC(=O)[C@H](CCCCN)NC(=O)[C@H]([C@@H](C)O)NC1=O [Peptide 41] (Ac-CTKRCARAPYKPCA-NH2; linker 1-5-13 via TBMB) | 24.6 ± 3.9 nM | – | – |
| CC(=O)N[C@H]1CSCc2cc(C#N)cc(c2)CSC[C@@H](C(=O)N[C@@H](C)C(N)=O)NC(=O)[C@@H]2CCCN2C(=O)[C@H](CCCCN)NC(=O)[C@H](Cc2ccc(O)cc2)NC(=O)[C@@H]2CCCN2C(=O)[C@H](CCCNC(=N)N)NC(=O)[C@H](CCCNC(=N)N)NC(=O)[C@H](C)NC(=O)[C@H](C)NC(=O)[C@H](CCCNC(=N)N)NC(=O)[C@H](CCCCN)NC(=O)[C@H]([C@@H](C)O)NC1=O [Peptide 29] (Ac-CTKRAARRPYKPCA-NH2; linker 1-13 via X4 (inferred)) | – | 43.8 ± 4.7 nM | – |
| CC(=O)N[C@H]1CSCc2cc3cc(c2)CSC[C@@H](C(=O)N[C@@H](C)C(N)=O)NC(=O)[C@@H]2CCCN2C(=O)[C@H](CCCCN)NC(=O)[C@H](Cc2ccc(O)cc2)NC(=O)[C@@H]2CCCN2C(=O)[C@H](CCCNC(=N)N)NC(=O)[C@H](CCCNC(=N)N)NC(=O)[C@H](C)NC(=O)[C@H](CSC3)NC(=O)[C@H](C)NC(=O)[C@H](CCCCN)NC(=O)[C@H]([C@@H](C)O)NC1=O [Peptide 39] (Ac-CTKACARRPYKPCA-NH2; linker 1-5-13 via TBMB) | 77.4 ± 9.6 nM | – | – |
| CC(=O)N[C@H]1CSCc2cccc(c2)CSC[C@@H](C(=O)N[C@@H](C)C(N)=O)NC(=O)[C@@H]2CCCN2C(=O)[C@H](CCCCN)NC(=O)[C@H](Cc2ccc(O)cc2)NC(=O)[C@@H]2CCCN2C(=O)[C@H](CCCNC(=N)N)NC(=O)[C@H](CCCNC(=N)N)NC(=O)[C@H](C)NC(=O)[C@H](C)NC(=O)[C@H](CCCNC(=N)N)NC(=O)[C@H](CCCCN)NC(=O)[C@H]([C@@H](C)O)NC1=O [Peptide 7] (Ac-CTKRAARRPYKPCA-NH2; linker 1-13 via mXylylene) | 18.7 ± 4.1 nM | – | – |
| CC[C@H](C)[C@H](NC(=O)[C@@H]1CCCN1C(=O)[C@H](CC(C)C)NC(=O)[C@H](Cc1ccc(O)cc1)NC(=O)[C@@H]1CCCN1C(=O)[C@H](Cc1c[nH]cn1)NC(=O)[C@H](CCCNC(=N)N)NC(=O)[C@H](C)NC(=O)[C@H](C)NC(=O)[C@H](Cc1c[nH]cn1)NC(=O)[C@H](Cc1c[nH]c2ccccc12)NC(=O)[C@@H]1CCCN1C(=O)[C@H](CCCNC(=N)N)NC(=O)[C@H](CC(C)C)NC(C)=O)C(=O)N[C@@H](CC(N)=O)C(N)=O [Peptide 14] (Ac-LRPWHAARHPYLPIN-NH2) | – | > 10000 nM | – |
| CC(=O)N[C@H]1CSCc2cc3cc(c2)CSC[C@@H](C(=O)N[C@@H](C)C(N)=O)NC(=O)[C@@H]2CCCN2C(=O)[C@H](CCCCN)NC(=O)[C@H](Cc2ccc(O)cc2)NC(=O)[C@H](C)NC(=O)[C@H](CCCNC(=N)N)NC(=O)[C@H](CCCNC(=N)N)NC(=O)[C@H](C)NC(=O)[C@H](CSC3)NC(=O)[C@H](CCCNC(=N)N)NC(=O)[C@H](CCCCN)NC(=O)[C@H]([C@@H](C)O)NC1=O [Peptide 42] (Ac-CTKRCARRAYKPCA-NH2; linker 1-5-13 via TBMB) | 131 ± 15.3 nM | – | – |
| CC(=O)N[C@H]1CSCc2ccc(c3ccccc23)CSC[C@@H](C(=O)N[C@@H](C)C(N)=O)NC(=O)[C@@H]2CCCN2C(=O)[C@H](CCCCN)NC(=O)[C@H](Cc2ccc(O)cc2)NC(=O)[C@@H]2CCCN2C(=O)[C@H](CCCNC(=N)N)NC(=O)[C@H](CCCNC(=N)N)NC(=O)[C@H](C)NC(=O)[C@H](C)NC(=O)[C@H](CCCNC(=N)N)NC(=O)[C@H](CCCCN)NC(=O)[C@H]([C@@H](C)O)NC1=O [Peptide 32] (Ac-CTKRAARRPYKPCA-NH2; linker 1-13 via X2 (inferred)) | – | 43.7 ± 6.4 nM | – |
| COc1cc2cc(c1)CSC[C@@H](C(=O)N[C@@H](C)C(N)=O)NC(=O)[C@@H]1CCCN1C(=O)[C@H](CCCCN)NC(=O)[C@H](Cc1ccc(O)cc1)NC(=O)[C@@H]1CCCN1C(=O)[C@H](CCCNC(=N)N)NC(=O)[C@H](CCCNC(=N)N)NC(=O)[C@H](C)NC(=O)[C@H](C)NC(=O)[C@H](CCCNC(=N)N)NC(=O)[C@H](CCCCN)NC(=O)[C@H]([C@@H](C)O)NC(=O)[C@@H](NC(C)=O)CSC2 [Peptide 28] (Ac-CTKRAARRPYKPCA-NH2; linker 1-13 via X3 (inferred)) | – | 38.4 ± 3.8 nM | – |
| CC(=O)N[C@H]1CSCc2cc3cc(c2)CSC[C@H](NC(=O)[C@H](CCCNC(=N)N)NC(=O)[C@H](CCCCN)NC(=O)[C@H]([C@@H](C)O)NC1=O)C(=O)N[C@@H](C)C(=O)N[C@@H](CCCNC(=N)N)C(=O)N[C@@H](CCCNC(=N)N)C(=O)N1CCC[C@H]1C(=O)N[C@@H](Cc1ccc(O)cc1)C(=O)N[C@@H](CCCCN)C(=O)N[C@@H](C)C(=O)N[C@H](C(=O)N[C@@H](C)C(N)=O)CSC3 [Peptide 45] (Ac-CTKRCARRPYKACA-NH2; linker 1-5-13 via TBMB) | 15.6 ± 2.2 nM | – | – |
| CC(=O)N[C@H]1CSCc2cccc(c2)CSC[C@@H](C(=O)N[C@@H](C)C(N)=O)NC(=O)[C@@H]2CCCN2C(=O)[C@H](CCCCN)NC(=O)[C@H](Cc2ccc(O)cc2)NC(=O)[C@@H]2CCCN2C(=O)[C@H](CCCNC(=N)N)NC(=O)[C@H](CCCNC(=N)N)NC(=O)[C@H](C)NC(=O)[C@H](C)NC(=O)[C@H](Cc2c[nH]cn2)NC(=O)[C@H](CCCCN)NC(=O)[C@H]([C@@H](C)O)NC1=O [Peptide 24] (Ac-CTKHAARRPYKPCA-NH2; linker 1-13 via mXylylene) | – | 265 ± 7.4 nM | – |
| CC(=O)N[C@H]1CSCc2ccc(cc2)CSC[C@@H](C(=O)N[C@@H](CC(N)=O)C(N)=O)NC(=O)[C@@H]2CCCN2C(=O)[C@H](CC(C)C)NC(=O)[C@H](Cc2ccc(O)cc2)NC(=O)[C@@H]2CCCN2C(=O)[C@H](Cc2c[nH]cn2)NC(=O)[C@H](CCCNC(=N)N)NC(=O)[C@H](C)NC(=O)[C@H](C)NC(=O)[C@H](Cc2c[nH]cn2)NC(=O)[C@H](Cc2c[nH]c3ccccc23)NC(=O)[C@@H]2CCCN2C(=O)[C@H](CCCNC(=N)N)NC1=O [Peptide 17] (Ac-CRPWHAARHPYLPCN-NH2; linker 1-14 via pXylylene) | – | > 10000 nM | – |
| CC[C@H](C)[C@H](NC(=O)[C@@H]1CCCN1C(=O)[C@H](CC(C)C)NC(=O)[C@H](Cc1ccc(O)cc1)NC(=O)[C@@H]1CCCN1C(=O)[C@H](Cc1c[nH]cn1)NC(=O)[C@H](CCCNC(=N)N)NC(=O)[C@H](C)NC(=O)[C@H](C)NC(=O)[C@H](Cc1c[nH]cn1)NC(=O)[C@H](Cc1c[nH]c2ccccc12)NC(=O)[C@@H]1CCCN1C(=O)[C@H](CCCNC(=N)N)NC(C)=O)C(=O)N[C@@H](CC(N)=O)C(N)=O [Peptide 15] (Ac-RPWHAARHPYLPIN-NH2) | – | > 10000 nM | – |
| CC(=O)N[C@H]1CSCc2cc3cc(c2)CSC[C@@H](C(=O)N[C@@H](CCCCN)C(N)=O)NC(=O)[C@H](CCCNC(=N)N)NC(=O)[C@@H]2CCCN2C(=O)[C@H](C)NC(=O)[C@H]([C@@H](C)O)NC(=O)[C@H](CCCCN)NC(=O)[C@H](Cc2ccc(O)cc2)NC(=O)[C@H](CCCNC(=N)N)NC(=O)[C@H](CSC3)NC(=O)[C@H](C)NC(=O)[C@H](CCCNC(=N)N)NC(=O)[C@@H]2CCCN2C1=O [Peptide 36] (Ac-CPRACRYKTAPRCK-NH2; linker 1-5-13 via TBMB) | > 10000 nM | – | completely lose affinity |
| CC(=O)N[C@H]1CSCc2ccc(cc2)CSC[C@@H](C(=O)N[C@@H](C)C(N)=O)NC(=O)[C@@H]2CCCN2C(=O)[C@H](CCCCN)NC(=O)[C@H](Cc2ccc(O)cc2)NC(=O)[C@@H]2CCCN2C(=O)[C@H](CCCNC(=N)N)NC(=O)[C@H](CCCNC(=N)N)NC(=O)[C@H](C)NC(=O)[C@H](C)NC(=O)[C@H](CCCNC(=N)N)NC(=O)[C@H](Cc2c[nH]c3ccccc23)NC(=O)[C@H]([C@@H](C)O)NC1=O [Peptide 23] (Ac-CTWRAARRPYKPCA-NH2; linker 1-13 via pXylylene) | – | 245 ± 29.3 nM | – |
